Reference: PubChem BioAssay AID2060625 (Molecular Pharmacology Branch, DTP, NCI, 2025)

Test system: 186277-243-T-J2-PDC spheroids with HUVEC/MSC, viability
Test: Anticancer human tumor 186277-243-T-J2-PDC patient-derived colon adenocarcinoma cell line growth inhibition [CLK]
Settings: for IC50: curve of first compound; for viability, T/C: stronger effect = lower value
Method in brief: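 Multi-cell-type spheroids combined patient-derived tumor cells with HUVEC endothelial cells and human mesenchymal stem cells. Paired agents were dosed in half-log steps down from about clinical Cmax, or from 10 microM where Cmax was unknown.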

[1] = second compound 0.0316 µM, first compound 0.0316 µM
[2] = second compound 0.0316 µM, first compound 0.1 µM
[3] = second compound 0.0316 µM, first compound 0.316 µM
[4] = second compound 0.0316 µM, first compound 1 µM
[5] = second compound 0.1 µM, first compound 0.0316 µM
[6] = second compound 0.1 µM, first compound 0.1 µM
[7] = second compound 0.1 µM, first compound 0.316 µM
[8] = second compound 0.1 µM, first compound 1 µM
[9] = second compound 0.316 µM, first compound 0.0316 µM
[10] = second compound 0.316 µM, first compound 0.1 µM
[11] = second compound 0.316 µM, first compound 0.316 µM
[12] = second compound 0.316 µM, first compound 1 µM
[13] = second compound 1 µM, first compound 0.0316 µM
[14] = second compound 1 µM, first compound 0.1 µM
[15] = second compound 1 µM, first compound 0.316 µM
[16] = second compound 1 µM, first compound 1 µM
[17] = second compound 3.16 µM, first compound 0.0316 µM
[18] = second compound 3.16 µM, first compound 0.1 µM
[19] = second compound 3.16 µM, first compound 0.316 µM
[20] = second compound 3.16 µM, first compound 1 µM
[21] = second compound 10 µM, first compound 0.0316 µM
[22] = second compound 10 µM, first compound 0.1 µM
[23] = second compound 10 µM, first compound 0.316 µM
[24] = second compound 10 µM, first compound 1 µM
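Note: compound exposure lasted seven days before readout.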
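Throughout, for viability, T/C: 100% = DMSO vehicle control wells.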

C=CC(=O)Nc1cc(Nc2nccc(-c3cn(C)c4ccccc34)n2)c(OC)cc1N(C)CCN(C)C + CN1CCN(c2cc(C(=O)Nc3cc4cc(-c5cnn(C)c5)ccc4cn3)ccn2)CC1
IC50 (second compound 0.0316 µM): > 300 nM | IC50 (second compound 0.1 µM): > 300 nM | IC50 (second compound 0.316 µM): < 0.949 nM | IC50 (second compound 1 µM): < 0.949 nM | IC50 (second compound 3.16 µM): < 0.949 nM | IC50 (second compound 10 µM): < 0.949 nM | viability, T/C (second compound 0.0316 µM, first compound 0.000949 µM): 92.1% | viability, T/C (second compound 0.0316 µM, first compound 0.003 µM): 92.6% | viability, T/C (second compound 0.0316 µM, first compound 0.00949 µM): 90.9% | viability, T/C (second compound 0.0316 µM, first compound 0.03 µM): 78.2% | viability, T/C (second compound 0.0316 µM, first compound 0.0949 µM): 83.8% | viability, T/C (second compound 0.0316 µM, first compound 0.3 µM): 82.2% | viability, T/C (second compound 0.1 µM, first compound 0.000949 µM): 87% | viability, T/C (second compound 0.1 µM, first compound 0.003 µM): 75.6% | viability, T/C (second compound 0.1 µM, first compound 0.00949 µM): 86.8% | viability, T/C (second compound 0.1 µM, first compound 0.03 µM): 92.3% | viability, T/C (second compound 0.1 µM, first compound 0.0949 µM): 70.9% | viability, T/C (second compound 0.1 µM, first compound 0.3 µM): 64% | viability, T/C (second compound 0.316 µM, first compound 0.000949 µM): 25.9% | viability, T/C (second compound 0.316 µM, first compound 0.003 µM): 26.1% | viability, T/C (second compound 0.316 µM, first compound 0.00949 µM): 25.2% | viability, T/C (second compound 0.316 µM, first compound 0.03 µM): 21.2% | viability, T/C (second compound 0.316 µM, first compound 0.0949 µM): 20.8% | viability, T/C (second compound 0.316 µM, first compound 0.3 µM): 14% | viability, T/C (second compound 1 µM, first compound 0.000949 µM): 0.45% | viability, T/C (second compound 1 µM, first compound 0.003 µM): 0.44% | viability, T/C (second compound 1 µM, first compound 0.00949 µM): 1.59% | viability, T/C (second compound 1 µM, first compound 0.03 µM): 0.36% | viability, T/C (second compound 1 µM, first compound 0.0949 µM): 0.85% | viability, T/C (second compound 1 µM, first compound 0.3 µM): 0.32% | viability, T/C (second compound 3.16 µM, first compound 0.000949 µM): 1.64% | viability, T/C (second compound 3.16 µM, first compound 0.003 µM): 1.27% | viability, T/C (second compound 3.16 µM, first compound 0.00949 µM): 2.11% | viability, T/C (second compound 3.16 µM, first compound 0.03 µM): 0.98% | viability, T/C (second compound 3.16 µM, first compound 0.0949 µM): 0.87% | viability, T/C (second compound 3.16 µM, first compound 0.3 µM): 0.74% | viability, T/C (second compound 10 µM, first compound 0.000949 µM): 0.65% | viability, T/C (second compound 10 µM, first compound 0.003 µM): 0.71% | viability, T/C (second compound 10 µM, first compound 0.00949 µM): 0.97% | viability, T/C (second compound 10 µM, first compound 0.03 µM): 0.86% | viability, T/C (second compound 10 µM, first compound 0.0949 µM): 0.61% | viability, T/C (second compound 10 µM, first compound 0.3 µM): 1.03%

C=CC(=O)N1CCN(c2nc(=O)n(-c3c(C)ccnc3C(C)C)c3nc(-c4c(O)cccc4F)c(F)cc23)C(C)C1 (stereo unspecified) + CN1CCN(c2cc(C(=O)Nc3cc4cc(-c5cnn(C)c5)ccc4cn3)ccn2)CC1
IC50 (second compound 0.0316 µM): > 10000 nM | IC50 (second compound 0.1 µM): > 10000 nM | IC50 (second compound 0.316 µM): < 31.6 nM | IC50 (second compound 1 µM): < 31.6 nM | IC50 (second compound 3.16 µM): < 31.6 nM | IC50 (second compound 10 µM): < 31.6 nM | viability, T/C [1]: 97.2% | viability, T/C [2]: 108% | viability, T/C [3]: 102% | viability, T/C [4]: 98.8% | viability, T/C (second compound 0.0316 µM, first compound 3.16 µM): 102% | viability, T/C (second compound 0.0316 µM, first compound 10 µM): 86.6% | viability, T/C [5]: 102% | viability, T/C [6]: 81% | viability, T/C [7]: 90.5% | viability, T/C [8]: 84.1% | viability, T/C (second compound 0.1 µM, first compound 3.16 µM): 86.2% | viability, T/C (second compound 0.1 µM, first compound 10 µM): 72.4% | viability, T/C [9]: 29.7% | viability, T/C [10]: 28.8% | viability, T/C [11]: 29.5% | viability, T/C [12]: 24.8% | viability, T/C (second compound 0.316 µM, first compound 3.16 µM): 30.8% | viability, T/C (second compound 0.316 µM, first compound 10 µM): 11% | viability, T/C [13]: 0.72% | viability, T/C [14]: 1.4% | viability, T/C [15]: 0.59% | viability, T/C [16]: 1.74% | viability, T/C (second compound 1 µM, first compound 3.16 µM): 1.4% | viability, T/C (second compound 1 µM, first compound 10 µM): 1.65% | viability, T/C [17]: 0.98% | viability, T/C [18]: 1.19% | viability, T/C [19]: 1.22% | viability, T/C [20]: 2.38% | viability, T/C (second compound 3.16 µM, first compound 3.16 µM): 2.84% | viability, T/C (second compound 3.16 µM, first compound 10 µM): 1.94% | viability, T/C [21]: 0.63% | viability, T/C [22]: 0.71% | viability, T/C [23]: 1.36% | viability, T/C [24]: 1.03% | viability, T/C (second compound 10 µM, first compound 3.16 µM): 2.23% | viability, T/C (second compound 10 µM, first compound 10 µM): 1.12%

CCN1CCN(Cc2ccc(Nc3ncc(F)c(-c4cc(F)c5nc(C)n(C(C)C)c5c4)n3)nc2)CC1 + CNC(=O)c1ccc(Nc2nc(OC3CCCC3)c3c(-c4ccc5nc(C)oc5c4)c[nH]c3n2)c(OC)c1
IC50 (second compound 0.0316 µM): > 1000 nM | IC50 (second compound 0.1 µM): > 1000 nM | IC50 (second compound 0.316 µM): > 1000 nM | IC50 (second compound 1 µM): < 3.16 nM | IC50 (second compound 3.16 µM): < 3.16 nM | IC50 (second compound 10 µM): < 3.16 nM | viability, T/C (second compound 0.0316 µM, first compound 0.00316 µM): 123% | viability, T/C (second compound 0.0316 µM, first compound 0.01 µM): 101% | viability, T/C [1]: 148% | viability, T/C [2]: 116% | viability, T/C [3]: 125% | viability, T/C [4]: 117% | viability, T/C (second compound 0.1 µM, first compound 0.00316 µM): 92.7% | viability, T/C (second compound 0.1 µM, first compound 0.01 µM): 98.5% | viability, T/C [5]: 104% | viability, T/C [6]: 103% | viability, T/C [7]: 114% | viability, T/C [8]: 104% | viability, T/C (second compound 0.316 µM, first compound 0.00316 µM): 59% | viability, T/C (second compound 0.316 µM, first compound 0.01 µM): 64.3% | viability, T/C [9]: 71.6% | viability, T/C [10]: 78.8% | viability, T/C [11]: 76.5% | viability, T/C [12]: 74.8% | viability, T/C (second compound 1 µM, first compound 0.00316 µM): 41.8% | viability, T/C (second compound 1 µM, first compound 0.01 µM): 47.8% | viability, T/C [13]: 48.3% | viability, T/C [14]: 60.5% | viability, T/C [15]: 58.1% | viability, T/C [16]: 61.5% | viability, T/C (second compound 3.16 µM, first compound 0.00316 µM): 39.1% | viability, T/C (second compound 3.16 µM, first compound 0.01 µM): 39.2% | viability, T/C [17]: 45.2% | viability, T/C [18]: 47% | viability, T/C [19]: 51.9% | viability, T/C [20]: 59.6% | viability, T/C (second compound 10 µM, first compound 0.00316 µM): 41% | viability, T/C (second compound 10 µM, first compound 0.01 µM): 39.9% | viability, T/C [21]: 46.5% | viability, T/C [22]: 43.4% | viability, T/C [23]: 47.8% | viability, T/C [24]: 46.9%
